The source of these data is patent EP0081425B1, “Pharmaceutical compositions having normolipemic properties and containing compounds of the n-substituted benzenesulfonamide type” (priority 1981, dated 1983).

This assay concerns hyperlipidémie provoquée par l'administration de TRITON®. Nature of the assay: Triton test: hyperlipidemia induced by i.v. TRITON W.R. in fasted rats. The class given is in vivo, rats WISTAR mâles. The conditions noted are these: for Cholestérol total Score (par rapport au clofibrate compté pour 1) / Triglycérides Score (par rapport au clofibrate compté pour 1) / Lipides totaux Score (par rapport au clofibrate compté pour 1) / Cholestérol estérifié Score (par rapport au clofibrate compté pour 1): ratio to clofibrate of the same series; for inhibition in vivo at 250 mg/kg: Rattus norvegicus, po, blood assayed 6 h and/or 24 h later. The source says: Dans une première série d'expériences, des produits ont été testés sur une hyperlipidémie provoquée par l'administration de TRITON® selon le protocole suivant.
Les essais ont été réalisés sur des groupes de cinq rats WISTAR mâles dont le poids varie de 150 à 175 g.
Pour effectuer ces essais, on provoque une hyperlipidémie chez les animaux, au moyen du produit commercialisé par la Société ROHM and HAAS sous le nom de TRITON® W. R.
On observe, sur cette hyperlipidémie, les effets obtenus par administration des substances actives selon l'invention.
Les essais sont réalisés comme suit : • les rats sont mis à jeûner pendant 18 heures, puis on administre le TRITON® W.R. par voie intraveineuse en solution aqueuse à 10 % à raison de 200 mg/kg ;
6 heures et/ou 24 heures plus tard, on effectue les dosages sur le sang de façon traditionnelle.
Dans la première colonne, on a indiqué le numéro du composé testé.
Dans la deuxième colonne, on a indiqué le nombre d'animaux qui ont été soumis au test.
Dans les quatre dernières colonnes, on a indiqué les résultats relatifs respectivement : • aux lipides totaux, • aux triglycérides, • au cholestérol total, • au cholestérol estérifié.
Dans chacune de ces colonnes, on indique : • a) le pourcentage de diminution par rapport au témoin TRITON; • b) le score par rapport au clofibrate de référence, c'est-à-dire le rapport de l'intensité de l'activité du produit testé vis-à-vis de celle,de l'activité au clofibrate comptée pour 1.

Setting [1] is: 250 mg/kg oral, given with TRITON W.R. 200 mg/kg i.v., read-out: Cholestérol estérifié % (pourcentage de diminution par rapport au témoin TRITON).
[2] abbreviates: 250 mg/kg oral, given with TRITON W.R. 200 mg/kg i.v., read-out: Cholestérol total % (pourcentage de diminution par rapport au témoin TRITON).
Where [3] appears, read: 250 mg/kg oral, given with TRITON W.R. 200 mg/kg i.v., read-out: Triglycérides % (pourcentage de diminution par rapport au témoin TRITON).
The mark [4] stands for this setting: read-out: Lipides totaux % (pourcentage de diminution par rapport au témoin TRITON), 250 mg/kg oral, given with TRITON W.R. 200 mg/kg i.v.

Read-outs that look alike come from different tables or passages of the source.

As to `COc1ccc(Cl)cc1S(=O)(=O)NCCO` [Composé n° 276], the “Cholestérol total Score (par rapport au clofibrate compté pour 1)” value (shortened to “Cholestérol total Score”) (250 mg/kg oral) is on record as 0,25. Where the note is “250 mg/kg oral”, the “Triglycérides Score (par rapport au clofibrate compté pour 1)” value (shortened to “Triglycérides Score”) was 0,48. Also, the inhibition in vivo at 250 mg/kg was 0% under setting [1], 4.4% under setting [2] and 24.8% under setting [3].
As for `CCC(CO)NS(=O)(=O)c1cc(Cl)ccc1OC` (stereo not shown) [Composé n° 311], the “Lipides totaux Score (par rapport au clofibrate compté pour 1)” value (“Lipides totaux Score” below) (250 mg/kg oral) is listed as 0,69. The inhibition in vivo at 250 mg/kg was found to be 0% under setting [1], 0% under setting [2], 0% under setting [3] and 17.6% under setting [4].
As for `CCC(CO)NS(=O)(=O)c1cc(N)ccc1OC` (stereo not shown) [Composé n° 315], the “Cholestérol total Score” value (250 mg/kg oral) is 1,83. Moreover, the “Lipides totaux Score” value (250 mg/kg oral) was 3,61. Besides, under “250 mg/kg oral”, the “Triglycérides Score” value is 0,53. The inhibition in vivo at 250 mg/kg amounted to 0.8% under setting [1], 17.4% under setting [2], 38.1% under setting [3] and 49.8% under setting [4].
`COc1ccc(Cl)cc1S(=O)(=O)NCC(C)O` (stereo not shown) [Composé n° 318]: the “Cholestérol estérifié Score (par rapport au clofibrate compté pour 1)” value (from here on “Cholestérol estérifié Score”) (250 mg/kg oral) was 0,65. Also, the “Cholestérol total Score” value (250 mg/kg oral) was 1,55. Also, the “Lipides totaux Score” value (250 mg/kg oral) is recorded as 0,77. Besides, the inhibition in vivo at 250 mg/kg is, setting by setting: under setting [1], 32%; under setting [2], 14.7%; under setting [3], 0%; under setting [4], 10.7%.
In the case of `COc1cc(N)c(Cl)cc1S(=O)(=O)NCC(C)O` (stereo not shown) [Composé n° 323], where the note is “250 mg/kg oral”, the “Cholestérol estérifié Score” value was 1,44. The “Cholestérol total Score” value (250 mg/kg oral) is on record as 4,26. For the setting “250 mg/kg oral”, the “Lipides totaux Score” value was 1,23. Moreover, the inhibition in vivo at 250 mg/kg is, setting by setting: under setting [1], 62.9%; under setting [2], 39.2%; under setting [3], 53%; under setting [4], 55.2%.
As for `CCC(CO)NS(=O)(=O)c1cc(Br)ccc1OC` (stereo not shown) [Composé n° 645], the “Cholestérol estérifié Score” value (250 mg/kg oral) is listed as 0,50. The “Cholestérol total Score” value (250 mg/kg oral) is 1,54. Moreover, the “Lipides totaux Score” value (250 mg/kg oral) is listed as 3,62. Also, the “Triglycérides Score” value (250 mg/kg oral) is recorded as 1,21. Moreover, the inhibition in vivo at 250 mg/kg was 19.4% under setting [1], 32.6% under setting [2], 36.8% under setting [3] and 42.3% under setting [4].
Take `COc1cc([N+](=O)[O-])ccc1S(=O)(=O)NCCO` [compound 277]: under “250 mg/kg oral”, the “Cholestérol estérifié Score” value is given as 0,08. Further, the “Cholestérol total Score” value (250 mg/kg oral) is 0,18. Under “250 mg/kg oral”, the “Triglycérides Score” value is reported as 0,38. Also, the inhibition in vivo at 250 mg/kg is 2.9% under setting [1], 3.2% under setting [2], 19.7% under setting [3] and 0% under setting [4].
`COc1cc(N)ccc1S(=O)(=O)NCCO` [compound 278]: for the setting “250 mg/kg oral”, the “Cholestérol estérifié Score” value was 0,65. Further, the inhibition in vivo at 250 mg/kg runs as follows: under setting [1], 22%; under setting [2], 0%; under setting [3], 4.5%.
Turning to `COc1ccc([N+](=O)[O-])cc1S(=O)(=O)NCCO` [compound 279], for the setting “250 mg/kg oral”, the “Triglycérides Score” value is listed as 0,20. Besides, the inhibition in vivo at 250 mg/kg was 0% under setting [1], 0% under setting [2] and 10.2% under setting [3].
`COc1ccc(N)cc1S(=O)(=O)NCCO` [compound 280]: the “Cholestérol estérifié Score” value (250 mg/kg oral) was 0,08. In addition, the “Cholestérol total Score” value (250 mg/kg oral) is recorded as 0,11. Besides, the inhibition in vivo at 250 mg/kg is, setting by setting: under setting [1], 2.9%; under setting [2], 1.9%; under setting [3], 0%.
On to `COc1cc([N+](=O)[O-])c(Cl)cc1S(=O)(=O)NCCO` [compound 281, chloro-5 N-(hydroxy-2 éthyl) méthoxy-2 nitro-4 benzènesulfonamide], for which, where the note is “250 mg/kg oral”, the “Cholestérol estérifié Score” value is on record as 0,13. The “Cholestérol total Score” value (250 mg/kg oral) is reported as 0,75. In addition, the “Lipides totaux Score” value (250 mg/kg oral) is 0,25. Further, the inhibition in vivo at 250 mg/kg runs as follows: under setting [1], 4.9%; under setting [2], 13.3%; under setting [3], 0%; under setting [4], 11.3%.
For the molecule `COc1cc(N)c(Cl)cc1S(=O)(=O)NCCO` [compound 282], for the setting “250 mg/kg oral”, the “Cholestérol estérifié Score” value is given as 0,46, the “Cholestérol total Score” value was 0,75, the “Lipides totaux Score” value was 0,26 and the “Triglycérides Score” value is reported as 0,42. In addition, under setting [1], the inhibition in vivo at 250 mg/kg is 15.5%. The inhibition in vivo at 250 mg/kg under setting [2] stood at 13.3%. Under setting [3], the inhibition in vivo at 250 mg/kg was determined as 21.6%. For the same molecule, the inhibition in vivo at 250 mg/kg under setting [4] was found to be 12%.
With `CCC(CO)NS(=O)(=O)c1ccc([N+](=O)[O-])cc1OC` (stereo not shown) [compound 312], where the note is “250 mg/kg oral”, the “Lipides totaux Score” value is reported as 1,79. Besides, the inhibition in vivo at 250 mg/kg is, setting by setting: under setting [1], 54.1%; under setting [2], 55.1%; under setting [3], 0%; under setting [4], 45.4%.
On the same counts, the results for `CCC(CO)NS(=O)(=O)c1ccc(N)cc1OC` (stereo not shown) [compound 313] are 0,77, 39.4%, 39.3%, 0% and 19.4%.
For `CCC(CO)NS(=O)(=O)c1cc([N+](=O)[O-])ccc1OC` (stereo not shown) [compound 314], the “Lipides totaux Score” value (250 mg/kg oral) was 1,02. Where the note is “250 mg/kg oral”, the “Triglycérides Score” value is reported as 0,04. Further, the inhibition in vivo at 250 mg/kg is, setting by setting: under setting [1], 44%; under setting [2], 42.1%; under setting [3], 1.2%; under setting [4], 25.9%.
Consider `CCC(CO)NS(=O)(=O)c1cc(Cl)c(N)cc1OC` (stereo not shown) [compound 317], for which, where the note is “250 mg/kg oral”, the “Cholestérol estérifié Score” value was 0,52. Also, for the setting “250 mg/kg oral”, the “Cholestérol total Score” value was 0,17. The “Lipides totaux Score” value (250 mg/kg oral) is 3,11. The inhibition in vivo at 250 mg/kg is 25.4% under setting [1], 1.6% under setting [2], 0% under setting [3] and 42.9% under setting [4].
On to `COc1cc([N+](=O)[O-])ccc1S(=O)(=O)NCC(C)O` (stereo not shown) [compound 319], for which, where the note is “250 mg/kg oral”, the “Cholestérol estérifié Score” value was 0,33. For the setting “250 mg/kg oral”, the “Cholestérol total Score” value is on record as 0,17. Further, where the note is “250 mg/kg oral”, the “Lipides totaux Score” value is listed as 1,55. Also, under “250 mg/kg oral”, the “Triglycérides Score” value is given as 0,78. The inhibition in vivo at 250 mg/kg by setting is: under setting [1], 16.4%; under setting [2], 1.6%; under setting [3], 56.5%; under setting [4], 21.4%.
In the case of `COc1cc(N)ccc1S(=O)(=O)NCC(C)O` (stereo not shown) [compound 320], under “250 mg/kg oral”, the “Cholestérol estérifié Score” value is 0,34, the “Cholestérol total Score” value was 1,61, the “Lipides totaux Score” value is recorded as 1,48 and the “Triglycérides Score” value is given as 0,91. Besides, under setting [1], the inhibition in vivo at 250 mg/kg was 16.7%. In addition, the inhibition in vivo at 250 mg/kg under setting [2] was 15.3%. Also, the inhibition in vivo at 250 mg/kg under setting [3] was 66.1%. For the same molecule, the inhibition in vivo at 250 mg/kg under setting [4] was found to be 20.5%.
As for `COc1ccc([N+](=O)[O-])cc1S(=O)(=O)NCC(C)O` (stereo not shown) [compound 321], for the setting “250 mg/kg oral”, the “Cholestérol estérifié Score” value is given as 0,95, the “Cholestérol total Score” value is 1,44, the “Lipides totaux Score” value is given as 2,84 and the “Triglycérides Score” value is listed as 1,05. In addition, under setting [1], the inhibition in vivo at 250 mg/kg came to 46.7%. The inhibition in vivo at 250 mg/kg under setting [2] amounted to 13.7%. Also, the inhibition in vivo at 250 mg/kg under setting [3] stood at 76%. Besides, the inhibition in vivo at 250 mg/kg under setting [4] came to 39.2%.
